Measured values: patent US20190274334A1 (MARS, INCORPORATED, priority 2016, published 2019)
Read-outs that look alike come from different tables or passages of the source. *1 amine or outer side, *2 acyl side, *3 side chain or, on linkers, in order; H or OH if unused. Where a SMILES comes first, the peptide text is derived from it. [ ]: non-standard residue; d: D form. γGlu = O=C(O)[C@H](CCC(=O)[*:2])N[*:1]; Abu = CC[C@H](N)C(=O)O

Target: feline CaSR (f:CaSR) (Felis catus, UniProt A0ABI7YY68)
Experiment: cell-based
Type: cell-based
[1] = double-injection protocol, agonist mode and PAM mode
[2] = PAM mode, CaCl2 injected at EC20, read-out: EC50 (PAM)
[3] = agonist mode, read-out: EC50 (Agonist)

Chain of feline CaSR (f:CaSR) (A0ABI7YY68 entry or part of it): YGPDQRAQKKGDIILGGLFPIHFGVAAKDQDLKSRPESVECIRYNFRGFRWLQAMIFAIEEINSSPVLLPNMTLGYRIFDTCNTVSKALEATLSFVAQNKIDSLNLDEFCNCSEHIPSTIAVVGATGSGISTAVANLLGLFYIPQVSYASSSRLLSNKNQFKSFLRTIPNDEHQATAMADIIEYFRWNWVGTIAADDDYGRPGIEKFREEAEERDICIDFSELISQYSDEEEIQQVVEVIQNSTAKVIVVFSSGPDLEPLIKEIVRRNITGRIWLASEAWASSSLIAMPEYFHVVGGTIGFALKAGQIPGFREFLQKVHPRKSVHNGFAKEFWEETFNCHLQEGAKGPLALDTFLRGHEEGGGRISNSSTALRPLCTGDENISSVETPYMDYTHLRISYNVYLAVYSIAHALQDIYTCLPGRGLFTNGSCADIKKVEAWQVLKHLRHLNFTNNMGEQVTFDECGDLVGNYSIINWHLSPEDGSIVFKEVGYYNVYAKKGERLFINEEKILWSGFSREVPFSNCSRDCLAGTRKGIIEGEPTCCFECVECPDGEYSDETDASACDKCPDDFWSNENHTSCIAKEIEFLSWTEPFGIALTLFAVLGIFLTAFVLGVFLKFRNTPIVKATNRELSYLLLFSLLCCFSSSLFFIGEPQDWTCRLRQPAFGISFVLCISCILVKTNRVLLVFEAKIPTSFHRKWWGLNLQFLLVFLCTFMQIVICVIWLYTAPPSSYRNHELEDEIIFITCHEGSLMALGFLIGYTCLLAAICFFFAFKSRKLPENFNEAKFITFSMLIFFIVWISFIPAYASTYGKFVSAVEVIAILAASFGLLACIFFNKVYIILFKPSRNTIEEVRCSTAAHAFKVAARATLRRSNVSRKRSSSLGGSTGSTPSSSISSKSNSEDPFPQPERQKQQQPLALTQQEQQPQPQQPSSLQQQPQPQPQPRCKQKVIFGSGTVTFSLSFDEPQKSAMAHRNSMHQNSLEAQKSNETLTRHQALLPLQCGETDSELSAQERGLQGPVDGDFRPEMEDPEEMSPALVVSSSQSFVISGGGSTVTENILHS

Row | Compound | Activity Type [1] | other results
1 | N[C@@H](CCC(=O)O)C(=O)O [L-Glutamic acid] |  | Activity Type: Agonist
2 | N[C@@H](CS(=O)(=O)O)C(=O)O [L-Cysteic acid] | Agonist | 
3 | N[C@@H](CCP(=O)(O)O)C(=O)O (stereo in doubt) [2-Amino-4-phosphonobutyric acid] | Agonist | 
4 | COc1ccc(C(CCNC(C)c2ccc(Cl)cc2)CCC(C)C)cc1 (stereo not shown) [N-(1-(4-chlorophenyl)ethyl)-3-(4-methoxyphenyl)-6-methylheptan-1-amine] | PAM | EC50 [2]: 115 µM
5 | N[C@@H](CCC(=O)N[C@@H](CS)C(=O)O)C(=O)O [H-Glu(Cys-OH)—OH] |  | Activity Type: Agonist
6 | C[Se]C[C@H](N)C(=O)O [Se-(Methyl)selenocysteine] | Agonist | EC50 [3]: 4470 µM
7 | Cc1ccc(C(C)NC(C)c2cc3ccccc3[nH]2)cc1C (stereo not shown) [N-(1-(1H-indol-2-yl)ethyl)-1-(3,4-dimethylphenyl)ethanamine] | PAM | 
8 | N[C@@H](CC(=O)NCC(=O)O)C(=O)O [H-Asp(Gly-OH)—OH] | Agonist | 
9 | CC[C@H](NC(=O)CC[C@H](N)C(=O)O)C(=O)NCC(=O)O [Ophthalmic Acid] (γGlu-[Abu]-Gly-OH) | Agonist | EC50 [3]: 2660 µM
10 | CC(C)C[C@H](NC(=O)CC[C@H](N)C(=O)O)C(=O)O [H-Glu(Leu-OH)—OH] | Agonist | 
11 | c1ccc(C2CCN(C3CCCc4ccccc43)C2)cc1 (stereo not shown) [3-phenyl-1-(1,2,3,4-tetrahydronaphthalen-1-yl)pyrrolidine] | PAM | 
12 | N[C@@H](CCC(=O)N[C@@H](CSCCO)C(=O)NCC(=O)O)C(=O)O [S-(2-Hydroxyethyl)glutathione] | Agonist | 
13 | NC[C@@H]1O[C@H](O[C@H]2[C@@H](O)[C@H](O[C@@H]3[C@@H](O)[C@H](N)C[C@H](N)[C@H]3O[C@H]3O[C@H](CN)[C@@H](O)[C@H](O)[C@H]3N)O[C@@H]2CO)[C@H](N)[C@@H](O)[C@@H]1O [Neomycin, reference compound] |  | Activity Type: Agonist EC50 1.87 mM; EC50: 1870 µM
14 | N[C@@H](CCC(=O)N[C@@H](CSCc1c[nH]c2ccccc12)C(=O)NCC(=O)O)C(=O)O [3-Glutathionyl-S-methylindole] | Agonist | 
15 | N[C@@H](CCC(=O)N[C@@H](Cc1c[nH]c2ccccc12)C(=O)O)C(=O)O [H-Glu(Trp-OH)—OH] | Agonist | 
16 | CSC[C@H](NC(=O)CC[C@H](N)C(=O)O)C(=O)NCC(=O)O [S-Methylglutathione] | Agonist | 
17 | CC(C)[C@H](NC(=O)CC[C@H](N)C(=O)O)C(=O)NCC(=O)O [γ-Glu-Val-Gly] | Agonist | EC50 [3]: 4220 µM
18 | NC[C@@H]1O[C@H](O[C@H]2[C@@H](O)[C@H](O[C@@H]3[C@@H](O)[C@H](N)C[C@H](N)[C@H]3O[C@H]3O[C@H](CO)[C@@H](O)[C@H](O)[C@H]3N)O[C@@H]2CO)[C@H](N)[C@@H](O)[C@@H]1O [Paromomycin, reference compound] | Agonist | 
19 | N[C@@H](CC(=O)O)C(=O)O [L-Aspartic acid] |  | Activity Type: Agonist EC50 4.11 mM
20 | CC(NCCC(c1ccccc1)c1ccco1)c1ccccc1 (stereo not shown) [3-(furan-2-yl)-3-phenyl-N-(1-phenylethyl)propan-1-amine] | PAM | EC50 [2]: 0.458 µM
21 | COc1cc(C(O)(c2nc3ccccc3s2)C(F)(F)F)c(OC)cc1N (stereo not shown) [1-(4-amino-2,5-dimethoxyphenyl)-1-(benzo[d]thiazol-2-yl)-2,2,2-trifluoroethanol] | PAM | EC50 [2]: 2.42 µM
22 | [Mg] [Magnesium] | Agonist | 

Row | Compound | Activity Type [1] | other results
23 | CC(NCCC(Cc1ccccc1)c1ccco1)c1ccccc1 (stereo not shown) [3-(furan-2-yl)-4-phenyl-N-(1-phenylethyl)butan-1-amine] | PAM | EC50 [2]: 0.673 µM
24 | NCCCNCCCCNCCCN [Spermine] |  | Activity Type: Agonist
25 | N[C@@H](C[C@H](O)C(=O)O)C(=O)O [2S,4S-γ-Hydroxy-L-glutamic acid] | Agonist | 
26 | NC(=O)CC[C@H](NC(=O)CC[C@H](NC(=O)CC[C@H](N)C(=O)O)C(=O)O)C(=O)O [H-Glu(Glu(Gln-OH)—OH)—OH] | Agonist | 
27 | N[C@@H](CCC(=O)NCC(=O)O)C(=O)O [H-Glu(Gly-OH)—OH] | Agonist | 
28 | N[C@@H](CC(=O)N[C@@H](Cc1ccccc1)C(=O)O)C(=O)O [H-Asp(Phe-OH)—OH] | Agonist | 
29 | CC(C)Oc1ccc(C(CCNC(C)c2ccc(Cl)cc2)C(C)C)cc1 (stereo not shown) [N-(1-(4-chlorophenyl)ethyl)-3-(4-isopropoxyphenyl)-4-methylpentan-1-amine] | PAM | EC50 [2]: 135 µM
30 | COc1ccc(C(CCNC(C)c2ccc(Cl)cc2)C(C)C)cc1 (stereo not shown) [N-(1-(4-chlorophenyl)ethyl)-3-(4-methoxyphenyl)-4-methylpentan-1-amine] | PAM | EC50 [2]: 1.44 µM
31 | CC(NCC1Cc2ccccc2O1)c1ccc2ccccc2n1 (stereo not shown) [N-((2,3-dihydrobenzofuran-2-yl)methyl)-1-(quinolin-2-yl)ethanamine] | PAM | EC50 [2]: 9.01 µM
32 | COc1ccccc1C(CCNC(C)c1ccc(Cl)cc1)c1ccco1 (stereo not shown) [N-(1-(4-chlorophenyl)ethyl)-3-(furan-2-yl)-3-(2-methoxyphenyl)propan-1-amine] | PAM | EC50 [2]: 1.41 µM
33 | N[C@@H](CP(=O)(O)O)C(=O)O (stereo in doubt) [2-Amino-3-phosphonopropionic acid] | Agonist | 
34 | CC(NCC1CCCN(C)C1c1cccs1)c1cc(Cl)c(N)c(Cl)c1 (stereo not shown) [2,6-dichloro-4-(1-(((1-methyl-2-(thiophen-2-yl)piperidin-3-yl)methyl)amino)ethyl)aniline] | PAM | EC50 [2]: 8.68 µM
35 | Poly-L-ornithine |  | Activity Type: Agonist EC50 0.240 mM; EC50 (read-out: EC50 (Agonist)): 240 µM
36 | N[C@@H](CCC(=O)N[C@@H](Cc1ccc(O)cc1)C(=O)O)C(=O)O [γ-Glu-Tyr] | Agonist | 
37 | Terbium | Agonist | EC50 [3]: 175 µM
38 | Cc1ccc(C(C)(O)c2nc3ccccc3s2)c(C)c1 (stereo not shown) [1-(benzo[d]thiazol-2-yl)-1-(2,4-dimethylphenyl)ethanol] | PAM | EC50 [2]: 0.0511 µM
39 | NCCCCNCCCN [Spermidine] | Agonist | 
40 | [Pr] [Praseodymium] | Agonist | EC50 [3]: 398 µM
41 | NC(CC(F)C(=O)O)C(=O)O (racemic) [4-Fluoro-DL-glutamic acid] | Agonist | 
42 | Cc1ccc(C(CCNC(C)c2cccs2)c2ccco2)cc1 (stereo not shown) [3-(furan-2-yl)-N-(1-(thiophen-2-yl)ethyl)-3-(p-tolyl)propan-1-amine] | PAM | EC50 [2]: 2.25 µM
43 | NC(=O)[C@@H](N)CCC(=O)O [L-Isoglutamine] | Agonist | 
44 | CSCC[C@H](NC(=O)CC[C@H](N)C(=O)O)C(=O)O [H-Glu(Met-OH)—OH] | Agonist | 

Row | Compound | Activity Type [1] | other results
45 | Poly-L-arginine |  | Activity Type: Agonist EC50 1.01 uM; EC50 (read-out: EC50 (Agonist)): 1.01 µM
46 | Cc1ccc(C2(CCNC(C)c3ccc(Cl)cc3)CCOC(C)(C)C2)cc1 (stereo not shown) [1-(4-chlorophenyl)-N-(2-(2,2-dimethyl-4-(p-tolyl)tetrahydro-2H-pyran-4-yl)ethyl)ethanamine] | PAM | 
47 | NC[C@H]1O[C@H](O[C@H]2[C@H](O[C@@H]3O[C@H](CO)[C@@H](O)[C@H]3O)[C@@H](O)[C@H](N)C[C@@H]2N)[C@H](N)[C@@H](O)[C@@H]1O [Ribostamycin, reference compound] | Agonist | 
48 | Poly-L-lysine |  | Activity Type: Agonist
49 | Cc1ccc(C(CCNC(C)c2ccccc2)c2ccco2)cc1 (stereo not shown) [3-(furan-2-yl)-N-(1-phenylethyl)-3-(p-tolyl)propan-1-amine] | PAM | EC50 [2]: 0.752 µM
50 | COC(=O)C[C@H](N)C(=O)O [L-Aspartic acid beta-methyl ester] | Agonist | 
51 | NC(CCCCC(=O)O)C(=O)O (racemic) [(±)-2-Aminopimelic acid] |  | Activity Type: Agonist
52 | N[C@@H](CCCC(=O)O)C(=O)O [L-2-Aminoadipic acid] | Agonist | 
53 | O=P(O)(O)CP(=O)(O)O [Methylenediphosphonic acid] | Agonist | EC50 [3]: 1290 µM
54 | CC(=O)N1C=Cc2ccccc2C1CC(=O)NC(C)c1cccc(Br)c1 (stereo not shown) [2-(2-acetyl-1,2-dihydroisoquinolin-1-yl)-N-(1-(3-bromophenyl)ethyl)acetamide] | PAM | EC50 [2]: 12.1 µM
55 | NC(=O)CC[C@H](NC(=O)CC[C@H](N)C(=O)O)C(=O)O [H-Glu(Gln-OH)—OH] | Agonist | 
56 | CC[C@H](NC(=O)CC[C@H](N)C(=O)O)C(=O)O | Agonist | 
57 | C[C@H](NC(=O)C[C@H](N)C(=O)O)C(=O)O [H-Asp(Ala-OH)—OH] | Agonist | 
58 | C[C@H](NC(=O)CC[C@H](N)C(=O)O)C(=O)O [γ-Glu-Ala, L-gamma-Glutamyl-L-alanine] | Agonist | 
59 | OCC(CNC1CCCOc2cc(Cl)ccc21)Cc1ccccn1 (stereo not shown) [3-((8-chloro-2,3,4,5-tetrahydrobenzo[b]oxepin-5-yl)amino)-2-(pyridin-2-ylmethyl)propan-1-ol] | PAM | 
60 | N[C@@H](CCS(=O)(=O)O)C(=O)O [L-Homocysteic acid] | Agonist | 
61 | N[C@@H](CCC(=O)N[C@@H](CS)C(=O)NCC(=O)O)C(=O)O [Glutathione] |  | Activity Type: Agonist EC 50 6.39 mM
62 | CC(NC1CCc2c(F)cc(Br)cc21)c1ccncc1 (stereo not shown) [6-bromo-4-fluoro-N-(1-(pyridin-4-yl)ethyl)-2,3-dihydro-1H-inden-1-amine] | PAM | 
63 | N[C@]1(C(=O)O)C[C@H](C(=O)O)C1 [(1s,3s)-1-aminocyclobutane-1,3-dicarboxylic acid] |  | Activity Type: Agonist
64 | NC(CCC(=O)NC(Cc1c[nH]c2ccccc12)C(=O)O)C(=O)O [γ-D-Glu-Trp, H-gamma-D-Glu-Trp-OH] | Agonist | EC50 [3]: 4200 µM
65 | [Gd] [Gadolinium] | Agonist | EC50 [3]: 295 µM
66 | [Ba] [Barium] | Agonist | EC50 [3]: 1170 µM
